# Measured values as given in patent EP0048614B1, “1-N-acylated and 1-N-alkylated derivatives of 4-0-substituted -2-deoxystreptamine aminoglycosides” (ELI LILLY AND COMPANY, priority 1980, dated 1982).
# Where two headings read alike, the source gives them in different places.
# Experiments:
# [1] = tested on: Bordetella bronchiseptica 16; assay: MIC, standard agar dilution test; type: cell-based
# Text: (§1) The antibacterial activity of the deprotected compounds of this invention is illustrated by the following in vitro and in vivo test data obtained with representative compounds. In Table I, the minimum inhibitory concentration (MIC) for representative compounds against a wide range of gram-positive and gram-negative bacteria is presented. The MIC values were obtained by the standard agar dilution test.
# [2] = tested on: Citrobacter freundii CF17; assay: MIC, standard agar dilution test; type: cell-based
# Text: as §1
# [3] = tested on: Enterobacter aerogenes C32; assay: MIC, standard agar dilution test; type: cell-based; conditions: Klebsiella aerogenes; Enterobacter aerogenes C32; agar dilution; read-out: Minimum Inhibitory Concentration
# Text: as §1
# [4] = tested on: Enterobacter aerogenes EB17; assay: MIC, standard agar dilution test; type: cell-based; conditions: Klebsiella aerogenes; Enterobacter aerogenes EB17; agar dilution; read-out: Minimum Inhibitory Concentration
# Text: as §1
# [5] = tested on: Enterobacter aerogenes X68; assay: MIC, standard agar dilution test; type: cell-based; conditions: Klebsiella aerogenes, Enterobacter aerogenes X68, read-out: Minimum Inhibitory Concentration
# Text: as §1
# [6] = tested on: Enterobacter cloacae 265A; assay: MIC, standard agar dilution test; type: cell-based; conditions: read-out: Minimum Inhibitory Concentration
# Text: as §1
# Enterobacter cloacae EB5 = assay: MIC, standard agar dilution test; type: cell-based
# Text: as §1
# Escherichia coli EC14 = assay: MIC, standard agar dilution test; type: cell-based
# Text: as §1
# Escherichia coli N10 = assay: MIC, standard agar dilution test; type: cell-based; conditions: Escherichia coli
# Text: as §1
# Escherichia coli TEM = assay: MIC, standard agar dilution test; type: cell-based; conditions: read-out: Minimum Inhibitory Concentration
# Text: as §1
# Hemophilus influenzae 76 = assay: MIC, standard agar dilution test; type: cell-based; conditions: Haemophilus influenzae, Hemophilus influenzae 76, read-out: Minimum Inhibitory Concentration
# Text: as §1
# [7] = tested on: Hemophilus influenzae C.L.; assay: MIC, standard agar dilution test; type: cell-based; conditions: Haemophilus influenzae, Hemophilus influenzae C.L., read-out: Minimum Inhibitory Concentration
# Text: as §1
# [8] = tested on: Klebsiella pneumoniae KAE; assay: MIC, standard agar dilution test; type: cell-based; conditions: read-out: Minimum Inhibitory Concentration
# Text: as §1
# [9] = tested on: Klebsiella pneumoniae X26; assay: MIC, standard agar dilution test; type: cell-based; conditions: Klebsiella pneumoniae X26; agar dilution; read-out: Minimum Inhibitory Concentration
# Text: as §1
# Proteus inconstans PR33 = assay: MIC, standard agar dilution test; type: cell-based; conditions: Providencia alcalifaciens
# Text: as §1
# Proteus morganii PR15 = assay: MIC, standard agar dilution test; type: cell-based; conditions: Morganella morganii
# Text: as §1
# Proteus rettgeri C24 = assay: MIC, standard agar dilution test; type: cell-based; conditions: Providencia rettgeri; Proteus rettgeri C24; agar dilution; read-out: Minimum Inhibitory Concentration
# Text: as §1
# Proteus rettgeri PR7 = assay: MIC, standard agar dilution test; type: cell-based; conditions: Providencia rettgeri
# Text: as §1
# [10] = tested on: Pseudomonas aeruginosa Ps18; assay: MIC, standard agar dilution test; type: cell-based
# Text: as §1
# [11] = tested on: Pseudomonas aeruginosa X239; assay: MIC, standard agar dilution test; type: cell-based
# Text: as §1
# [12] = tested on: Pseudomonas aeruginosa X528; assay: MIC, standard agar dilution test; type: cell-based
# Text: as §1
# [13] = tested on: Salmonella heidelberg X514; assay: MIC, standard agar dilution test; type: cell-based; conditions: Salmonella enterica
# Text: as §1
# [14] = tested on: Salmonella typhimurium 1335; assay: MIC, standard agar dilution test; type: cell-based; conditions: Salmonella enterica, read-out: Minimum Inhibitory Concentration
# Text: as §1
# Serratia marcescens SE3 = assay: MIC, standard agar dilution test; type: cell-based
# Text: as §1
# Serratia marcescens X99 = assay: MIC, standard agar dilution test; type: cell-based; conditions: Serratia marcescens X99, read-out: Minimum Inhibitory Concentration
# Text: as §1
# Shigella sonnei N9 = assay: MIC, standard agar dilution test; type: cell-based; conditions: read-out: Minimum Inhibitory Concentration
# Text: as §1
# [15] = tested on: Staphylococcus aureus S13E; assay: MIC, standard agar dilution test; type: cell-based; conditions: read-out: Minimum Inhibitory Concentration
# Text: as §1
# [16] = tested on: Staphylococcus aureus V41; assay: MIC, standard agar dilution test; type: cell-based
# Text: as §1
# [17] = tested on: Staphylococcus aureus X1.1; assay: MIC, standard agar dilution test; type: cell-based; conditions: Staphylococcus aureus X1.1; agar dilution; read-out: Minimum Inhibitory Concentration
# Text: as §1
# [18] = tested on: Staphylococcus aureus X400; assay: MIC, standard agar dilution test; type: cell-based
# Text: as §1
# [19] = tested on: Staphylococcus epidermidis EPI1; assay: MIC, standard agar dilution test; type: cell-based; conditions: Staphylococcus epidermidis, EPI1; read-out: Minimum Inhibitory Concentration
# Text: as §1
# [20] = tested on: Staphylococcus epidermidis EPI2; assay: MIC, standard agar dilution test; type: cell-based; conditions: Staphylococcus epidermidis EPI2; agar dilution; read-out: Minimum Inhibitory Concentration
# Text: as §1
# [21] = tested on: Streptococcus group D 9960; assay: MIC, standard agar dilution test; type: cell-based
# Text: as §1
# [22] = tested on: Streptococcus group D X66; assay: MIC, standard agar dilution test; type: cell-based
# Text: as §1
# [23] = tested on: Streptococcus pneumoniae Park I; assay: MIC, standard agar dilution test; type: cell-based
# Text: as §1
# [24] = tested on: Streptococcus pyogenes C203; assay: MIC, standard agar dilution test; type: cell-based
# Text: as §1
# [25] = tested on: Staphylococcus aureus 3055; assay: Subcutaneous therapy of experimental bacterial infection in mice (ED50); type: in vivo; conditions: Staphylococcus aureus, 3055, sc, mg/kg × 2 subcutaneous doses at 1 and 5 hours post infection, read-out: Effective Dose (ED50)
# Procedure: Table II illustrates the effective dose (ED50, the effective dose to protect 50 percent of the test animals) for representative compounds of this invention against an experimental bacterial infection in mice.
# The ED50 values were determined as described by W. E. Wick et al., Journal of Bacteriology, 81 [No. 2], 233-235 (1961).
# Escherichia coli X563 = assay: Standard disc-plate method, zone of inhibition against apramycin-resistant strain; type: cell-based; conditions: apramycin-resistant E. coli X563, one value for each of two test runs per compound; for zone of inhibition at 15 µg/disc: Escherichia coli, X563, read-out: Zone of Inhibition (diameter in mm), 15 mcg/disc
# Text: Table III, shown below, illustrates the in vitro activity of 1-N-(S-y-amino-a-hydroxybutyryl)apramycin, 1-N-(RS-y-amino-a-hydroxybutyryl)apramycin, and 1-N-(S-y-amino-a-hydroxybutyryl)nebramine against an apramycin resistant strain of E. coli. The results below were obtained using the standard disc-plate method. The numerical values are the diameters in millimeters of the zones of inhibition observed against this bacterium. Compounds substituted with the y-amino-a-hydroxybutyryl and analogous side chains are useful in treating infections caused by apramycin resistant bacteria such as the one above.
# The test organism (E. coli X563) used in the experiments summarized in Table III is resistant to apramycin due to a 3-N-acetyltransferase which enzymatically inactivates apramycin.
compound,measurement,setting,value
"CNC1C(OC2OC(CO)C(N)C(O)C2O)OC2CC(N)C(OC3C(N)CC(NC(=O)CN)C(O)C3O)OC2C1O (centres unmarked) [Test Compound 3, 1-N-glycylapramycin]",MIC,"[1]; Bordetella bronchiseptica, 16, read-out: Minimum Inhibitory Concentration",> 128 µg/mL
same,MIC,"[2]; Citrobacter freundii, CF17, read-out: Minimum Inhibitory Concentration",> 128 µg/mL
same,MIC,[3],64 µg/mL
same,MIC,[4],64 µg/mL
same,MIC,[5],64 µg/mL
same,MIC,"[6]; Enterobacter cloacae, 265A",128 µg/mL
same,MIC,"Enterobacter cloacae EB5; Enterobacter cloacae, EB5, read-out: Minimum Inhibitory Concentration",128 µg/mL
same,MIC,"Escherichia coli EC14; Escherichia coli, EC14, read-out: Minimum Inhibitory Concentration",128 µg/mL
same,MIC,"Escherichia coli N10; N10, read-out: Minimum Inhibitory Concentration",> 128 µg/mL
same,MIC,Escherichia coli TEM,32 µg/mL
same,MIC,Hemophilus influenzae 76,64 µg/mL
same,MIC,[7],64 µg/mL
same,MIC,[8]; Klebsiella pneumoniae,> 128 µg/mL
same,MIC,[9],64 µg/mL
same,MIC,"Proteus inconstans PR33; PR33, read-out: Minimum Inhibitory Concentration",128 µg/mL
same,MIC,"Proteus morganii PR15; PR15, read-out: Minimum Inhibitory Concentration",> 128 µg/mL
same,MIC,Proteus rettgeri C24,64 µg/mL
same,MIC,"Proteus rettgeri PR7; PR7, read-out: Minimum Inhibitory Concentration, Proteus rettgeri PR7",> 128 µg/mL
same,MIC,"[10]; Pseudomonas aeruginosa, PS18, read-out: Minimum Inhibitory Concentration",> 128 µg/mL
same,MIC,"[11]; Pseudomonas aeruginosa, X239, read-out: Minimum Inhibitory Concentration",> 128 µg/mL
same,MIC,"[12]; Pseudomonas aeruginosa, X528, read-out: Minimum Inhibitory Concentration",> 128 µg/mL
same,MIC,"[13]; X514, read-out: Minimum Inhibitory Concentration",128 µg/mL
same,MIC,[14]; TYPHIMURIUM,128 µg/mL
same,MIC,"Serratia marcescens SE3; Serratia marcescens, SE3, read-out: Minimum Inhibitory Concentration",128 µg/mL
same,MIC,Serratia marcescens X99,64 µg/mL
same,MIC,Shigella sonnei N9,128 µg/mL
same,MIC,[15],64 µg/mL
same,MIC,"[16]; Staphylococcus aureus, V41, read-out: Minimum Inhibitory Concentration",128 µg/mL
same,MIC,[17],64 µg/mL
same,MIC,"[18]; Staphylococcus aureus, X400, read-out: Minimum Inhibitory Concentration, Staphylococcus aureus X400",> 128 µg/mL
same,MIC,[19],64 µg/mL
same,MIC,[20],64 µg/mL
same,MIC,"[21]; D9960, read-out: Minimum Inhibitory Concentration",> 128 µg/mL
same,MIC,"[22]; DX66, read-out: Minimum Inhibitory Concentration",> 128 µg/mL
same,MIC,"[23]; Streptococcus pneumoniae, read-out: Minimum Inhibitory Concentration",> 128 µg/mL
same,MIC,"[24]; Streptococcus pyogenes, C203, read-out: Minimum Inhibitory Concentration",> 128 µg/mL
same,ED50,"[25]; mice challenged with 1,794 LD50's",59.5 mg/kg
same,zone of inhibition at 15 µg/disc,Escherichia coli X563,< 8 mm
"CCNC1CC(N)C(OC2OC3C(CC2N)OC(OC2OC(CO)C(N)C(O)C2O)C(NC)C3O)C(O)C1O (centres unmarked) [Test Compound 4, 1-N-ethylapramycin]",MIC,"[1]; Bordetella bronchiseptica 16, agar dilution, read-out: Minimum Inhibitory Concentration",64 µg/mL
same,MIC,"[2]; Citrobacter freundii CF17, agar dilution, read-out: Minimum Inhibitory Concentration",16 µg/mL
same,MIC,[3],8 µg/mL
same,MIC,[4],16 µg/mL
same,MIC,[5],16 µg/mL
same,MIC,"[6]; Enterobacter cloacae 265A, agar dilution",32 µg/mL
same,MIC,"Enterobacter cloacae EB5; Enterobacter cloacae EB5, agar dilution, read-out: Minimum Inhibitory Concentration",32 µg/mL
same,MIC,"Escherichia coli EC14; Escherichia coli EC14, agar dilution, read-out: Minimum Inhibitory Concentration",32 µg/mL
same,MIC,"Escherichia coli N10; N10, Escherichia coli N10, agar dilution, read-out: Minimum Inhibitory Concentration",16 µg/mL
same,MIC,Escherichia coli TEM,8 µg/mL
same,MIC,Hemophilus influenzae 76,16 µg/mL
same,MIC,[7],16 µg/mL
same,MIC,"[8]; Klebsiella pneumoniae KAE, agar dilution",16 µg/mL
same,MIC,[9],8 µg/mL
same,MIC,"Proteus inconstans PR33; Proteus inconstans PR33, agar dilution, read-out: Minimum Inhibitory Concentration",128 µg/mL
same,MIC,"Proteus morganii PR15; Proteus morganii PR15, agar dilution, read-out: Minimum Inhibitory Concentration",32 µg/mL
same,MIC,Proteus rettgeri C24,64 µg/mL
same,MIC,"Proteus rettgeri PR7; Proteus rettgeri PR7, read-out: Minimum Inhibitory Concentration",8 µg/mL
same,MIC,"[10]; Pseudomonas aeruginosa Ps18, agar dilution, read-out: Minimum Inhibitory Concentration",32 µg/mL
same,MIC,"[11]; Pseudomonas aeruginosa X239, agar dilution, read-out: Minimum Inhibitory Concentration",8 µg/mL
same,MIC,"[12]; Pseudomonas aeruginosa X528, agar dilution, read-out: Minimum Inhibitory Concentration",16 µg/mL
same,MIC,"[13]; Salmonella heidelberg X514, agar dilution, read-out: Minimum Inhibitory Concentration",32 µg/mL
same,MIC,"[14]; Salmonella typhimurium 1335, agar dilution",32 µg/mL
same,MIC,"Serratia marcescens SE3; Serratia marcescens SE3, agar dilution, read-out: Minimum Inhibitory Concentration",> 128 µg/mL
same,MIC,Serratia marcescens X99,64 µg/mL
same,MIC,Shigella sonnei N9,16 µg/mL
same,MIC,[15],8 µg/mL
same,MIC,"[16]; Staphylococcus aureus V41, agar dilution, read-out: Minimum Inhibitory Concentration",8 µg/mL
same,MIC,[17],8 µg/mL
same,MIC,"[18]; Staphylococcus aureus X400, read-out: Minimum Inhibitory Concentration",16 µg/mL
same,MIC,[19],8 µg/mL
same,MIC,[20],4 µg/mL
same,MIC,"[21]; D9960, Streptococcus group D 9960, agar dilution, read-out: Minimum Inhibitory Concentration",> 128 µg/mL
same,MIC,"[22]; DX66, Streptococcus group D X66, agar dilution, read-out: Minimum Inhibitory Concentration",> 128 µg/mL
same,MIC,[23]; Streptococcus pneumoniae; read-out: Minimum Inhibitory Concentration,16 µg/mL
same,MIC,"[24]; Streptococcus pyogenes C203, agar dilution, read-out: Minimum Inhibitory Concentration",16 µg/mL
same,ED50,[25]; mice challenged with 68.1 LD50's,4.5 mg/kg
same,Zone of Inhibition (diameter in mm),"Escherichia coli X563; 15 mcg/disc, listed as 5",12.1 mm
same,zone of inhibition at 15 µg/disc,Escherichia coli X563,11.3 mm
